Test results as given in patent US7091158B2, “Substituted thienyl(amino)sulphonylureas” (Bayer Aktiengesellschaft, priority 1999, dated 2006).

Legend:
[1] = system: weeds; assay: Post-emergence test, activity against weeds; format: in vivo
Description: (§1) To produce a suitable preparation of active compound, one part by weight of active compound is mixed with the stated amount of solvent, the stated amount of emulsifier is added and the concentrate is diluted with water to the desired concentration.
(§2) Test plants which have a height of 5–15 cm are sprayed with the preparation of active compound such that the particular amounts of active compound desired are applied per unit area. The concentration of the spray liquor is chosen so that the particular amounts of active compound desired are applied in 1000 l of water/ha.
(§3) After three weeks, the degree of damage to the plants is rated in % damage in comparison to the development of the untreated control.
(§4) The figures denote: • 0%=no effect (like untreated control) • 100%=total destruction

[2] = system: Viola; assay: Post-emergence test/greenhouse; format: in vivo; conditions: after three weeks, vs untreated control
Description: as §1, §2, §3, §4

[3] = system: Matricaria; assay: Post-emergence test/greenhouse; format: in vivo; conditions: 125 g of ai/ha, after three weeks, vs untreated control
Description: as §1, §2, §3, §4

[4] = system: Xanthium; assay: Post-emergence test/greenhouse; format: in vivo; conditions: Table B3, post-emergence, 125 g of ai/ha, after three weeks, vs untreated control
Description: as §1, §2, §3, §4

[5] = system: Wheat; assay: Post-emergence test/greenhouse; format: in vivo; conditions: 125 g of ai/ha, after three weeks, vs untreated control
Description: as §1, §2, §3, §4

[6] = system: Amaranthus; assay: Post-emergence test/greenhouse; format: in vivo; conditions: after three weeks, vs untreated control
Description: as §1, §2, §3, §4

[7] = system: Maize; assay: Pre-emergence test/greenhouse; format: in vivo; conditions: after three weeks, vs untreated control
Description: (§5) To produce a suitable preparation of active compound, 1 part by weight of active compound is mixed with the stated amount of solvent, the stated amount of emulsifier is added and the concentrate is diluted with water to the desired concentration.
(§6) Seeds of the test plants are sown in normal soil. After about 24 hours, the soil is sprayed with the preparation of active compound such that the particular amount of active compound desired is applied per unit area. The concentration of the spray liquor is chosen so that the particular amount of active compound desired is applied in 1000 litres of water per hectare.
as §3, §4

[8] = system: Cyperus; assay: Pre-emergence test/greenhouse; format: in vivo; conditions: after three weeks, vs untreated control
Description: as §5, §6, §3, §4

[9] = system: Amaranthus; assay: Pre-emergence test/greenhouse; format: in vivo; conditions: after three weeks, vs untreated control
Description: as §5, §6, §3, §4

[10] = system: Sinapis; assay: Pre-emergence test/greenhouse; format: in vivo; conditions: 250 g of ai/ha, after three weeks, vs untreated control
Description: as §5, §6, §3, §4

[11] = system: Abutilon; assay: Pre-emergence test/greenhouse; format: in vivo; conditions: 250 g of ai/ha, after three weeks, vs untreated control
Description: as §5, §6, §3, §4

[12] = system: weeds; assay: Pre-emergence test, activity against weeds; format: in vivo
Description: as §5, §6, §3, §4

[13] = system: Alopecurus; assay: Pre-emergence test/greenhouse; format: in vivo; conditions: after three weeks, vs untreated control
Description: as §5, §6, §3, §4

[14] = system: Alopecurus; assay: Post-emergence test/greenhouse; format: in vivo; conditions: after three weeks, vs untreated control
Description: as §1, §2, §3, §4

[15] = system: Stellaria; assay: Post-emergence test/greenhouse; format: in vivo; conditions: after three weeks, vs untreated control
Description: as §1, §2, §3, §4

[16] = system: Echinochloa; assay: Post-emergence test/greenhouse; format: in vivo; conditions: 15 g of ai/ha, after three weeks, vs untreated control
Description: as §1, §2, §3, §4

[17] = system: Veronica; assay: Post-emergence test/greenhouse; format: in vivo; conditions: 15 g of ai/ha, after three weeks, vs untreated control
Description: as §1, §2, §3, §4

[18] = system: Abutilon; assay: Post-emergence test/greenhouse; format: in vivo; conditions: after three weeks, vs untreated control
Description: as §1, §2, §3, §4

[19] = system: Lolium; assay: Post-emergence test/greenhouse; format: in vivo; conditions: 15 g of ai/ha, after three weeks, vs untreated control
Description: as §1, §2, §3, §4

[20] = system: Viola; assay: Pre-emergence test/greenhouse; format: in vivo; conditions: after three weeks, vs untreated control
Description: as §5, §6, §3, §4

[21] = system: Matricaria; assay: Pre-emergence test/greenhouse; format: in vivo; conditions: after three weeks, vs untreated control
Description: as §5, §6, §3, §4

[22] = system: Stellaria; assay: Pre-emergence test/greenhouse; format: in vivo; conditions: after three weeks, vs untreated control
Description: as §5, §6, §3, §4

[23] = system: Soya; assay: Pre-emergence test/greenhouse; format: in vivo; conditions: 4 g of ai/ha, after three weeks, vs untreated control
Description: as §5, §6, §3, §4

[24] = system: Veronica; assay: Pre-emergence test/greenhouse; format: in vivo; conditions: 4 g of ai/ha, after three weeks, vs untreated control
Description: as §5, §6, §3, §4

[25] = system: Barley; assay: Post-emergence test/greenhouse; format: in vivo; conditions: 4 g of ai/ha, after three weeks, vs untreated control
Description: as §1, §2, §3, §4

[26] = system: Cotton; assay: Pre-emergence test/greenhouse; format: in vivo; conditions: 15 g of ai/ha, after three weeks, vs untreated control
Description: as §5, §6, §3, §4

[27] = system: Ipomoea; assay: Post-emergence test/greenhouse; format: in vivo; conditions: Table B4, post-emergence, 125 g of ai/ha, after three weeks, vs untreated control
Description: as §1, §2, §3, §4

[28] = system: Setaria; assay: Post-emergence test/greenhouse; format: in vivo; conditions: Table B4, post-emergence, 125 g of ai/ha, after three weeks, vs untreated control
Description: as §1, §2, §3, §4

[29] = system: Chenopodium; assay: Post-emergence test/greenhouse; format: in vivo; conditions: Table B4, post-emergence, 125 g of ai/ha, after three weeks, vs untreated control
Description: as §1, §2, §3, §4

[30] = system: Chenopodium; assay: Pre-emergence test/greenhouse; format: in vivo; conditions: 125 g of ai/ha, after three weeks, vs untreated control
Description: as §5, §6, §3, §4

[31] = Table B3, post-emergence, 125 g of ai/ha
[32] = Table A6, pre-emergence, 250 g of ai/ha
[33] = Table A5, pre-emergence, 250 g of ai/ha
[34] = Table A4, pre-emergence, 250 g of ai/ha

## COC(=O)c1csc(C)c1NS(=O)(=O)NC(=O)Nc1nc(OC)cc(OC)n1 [Example 2, N-(4,6-dimethoxy-pyrimidin-2-yl)-N′-(4-methoxycarbonyl-2-methyl-thien-3-yl-amino-sulphonyl)-urea]
[1]
  activity against weeds: very strong activity
[2]; [31]
  degree of damage to the plants, Viola: 100%
[3]; Table B3, post-emergence
  degree of damage to the plants, Matricaria: 100%
[4]
  degree of damage to the plants, Xanthium: 95%
[5]; Table B3, post-emergence
  degree of damage to the plants, Wheat: 0%
[6]; [31]
  degree of damage to the plants, Amaranthus: 100%
other
  melting point: 174 °C
[7]; [32]
  degree of damage to the plants, Maize: 20%
[8]; [32]
  degree of damage to the plants, Cyperus: 95%
[9]; [32]
  degree of damage to the plants, Amaranthus: 95%
[10]; Table A6, pre-emergence
  degree of damage to the plants, Sinapis: 95%
[11]; Table A6, pre-emergence
  degree of damage to the plants, Abutilon: 90%
[12]
  activity against weeds: very strong activity

## CCOC(=O)c1csc(C(C)C)c1NS(=O)(=O)NC(=O)Nc1nc(OC)cc(OC)n1 [Example 4]
[13]; [33]
  degree of damage to the plants, Alopecurus: 100%
[8]; [33]
  degree of damage to the plants, Cyperus: 90%
[9]; [33]
  degree of damage to the plants, Amaranthus: 90%
[10]; Table A5, pre-emergence
  degree of damage to the plants, Sinapis: 90%
[11]; Table A5, pre-emergence
  degree of damage to the plants, Abutilon: 95%
[12]
  activity against weeds: very strong activity

## CCCc1scc(C(=O)OCC)c1NS(=O)(=O)NC(=O)Nc1nc(OC)cc(OC)n1 [Example 3]
[13]; [34]
  degree of damage to the plants, Alopecurus: 70%
[9]; [34]
  degree of damage to the plants, Amaranthus: 90%
[10]; Table A4, pre-emergence
  degree of damage to the plants, Sinapis: 90%
[11]; Table A4, pre-emergence
  degree of damage to the plants, Abutilon: 80%
[12]
  activity against weeds: very strong activity

## COC(=O)c1csc(C)c1S(=O)(=O)NC(=O)Nc1nc(C)nc(OC)n1 [Example 1, N-(4-methoxy-6-methyl-1,3,5-triazin-2-yl)-N′-(4-methoxycarbonyl-2-methyl-thien-3-yl-sulphonyl)-urea]
[1]
  activity against weeds: very strong activity
[2]; post-emergence, 15 g of ai/ha
  degree of damage to the plants, Viola: 100%
[14]; 15 g of ai/ha
  degree of damage to the plants, Alopecurus: 100%
[15]; 15 g of ai/ha
  degree of damage to the plants, Stellaria: 100%
[16]
  degree of damage to the plants, Echinochloa: 100%
[17]
  degree of damage to the plants, Veronica: 100%
[18]; 15 g of ai/ha
  degree of damage to the plants, Abutilon: 100%
[19]
  degree of damage to the plants, Lolium: 100%
other
  melting point: 195 °C
[20]; 4 g of ai/ha
  degree of damage to the plants, Viola: 100%
[21]; 4 g of ai/ha
  degree of damage to the plants, Matricaria: 95%
[22]; 4 g of ai/ha
  degree of damage to the plants, Stellaria: 95%
[23]
  degree of damage to the plants, Soya: 10%
[24]
  degree of damage to the plants, Veronica: 95%
[12]
  activity against weeds: very strong activity

## COC(=O)c1csc(C)c1S(=O)(=O)NC(=O)Nc1nc(OC)cc(OC)n1 [Example 6]
[1]
  activity against weeds: very strong activity
[14]; 4 g of ai/ha
  degree of damage to the plants, Alopecurus: 90%
[25]
  degree of damage to the plants, Barley: 20%
[15]; 4 g of ai/ha
  degree of damage to the plants, Stellaria: 95%
[6]; post-emergence, 4 g of ai/ha
  degree of damage to the plants, Amaranthus: 100%
[18]; 4 g of ai/ha
  degree of damage to the plants, Abutilon: 100%
[26]
  degree of damage to the plants, Cotton: 0%
[20]; 15 g of ai/ha
  degree of damage to the plants, Viola: 100%
[13]; pre-emergence, 15 g of ai/ha
  degree of damage to the plants, Alopecurus: 80%
[22]; 15 g of ai/ha
  degree of damage to the plants, Stellaria: 90%
[9]; pre-emergence, 15 g of ai/ha
  degree of damage to the plants, Amaranthus: 90%
[12]
  activity against weeds: very strong activity

## CCc1scc(C(=O)OC)c1NS(=O)(=O)NC(=O)Nc1nc(OC)cc(OC)n1 [Example 5]
[1]
  activity against weeds: very strong activity
[27]
  degree of damage to the plants, Ipomoea: 100%
[3]; Table B4, post-emergence
  degree of damage to the plants, Matricaria: 100%
[28]
  degree of damage to the plants, Setaria: 90%
[29]
  degree of damage to the plants, Chenopodium: 100%
[5]; Table B4, post-emergence
  degree of damage to the plants, Wheat: 20%
[20]; 125 g of ai/ha
  degree of damage to the plants, Viola: 95%
[7]; pre-emergence, 125 g of ai/ha
  degree of damage to the plants, Maize: 20%
[21]; 125 g of ai/ha
  degree of damage to the plants, Matricaria: 100%
[8]; pre-emergence, 125 g of ai/ha
  degree of damage to the plants, Cyperus: 95%
[30]
  degree of damage to the plants, Chenopodium: 95%
[12]
  activity against weeds: very strong activity
